From BindingDB's records for patent US20240190893 (Janssen Pharmaceutica, 2024)
“And” between values parts separate entries of the source, which are not always exact repeats. Equal values may be shown once.

Target: Induced myeloid leukemia cell differentiation protein Mcl-1 (Homo sapiens, UniProt Q07820)
Experiment: Terbium labeled Myeloid Cell Leukemia 1 (Mcl-1) homogeneous time-resolved fluorescence (HTRF) binding assay
Description: This assay evaluated inhibition of the BH3 domain: Mcl-1 interaction by measuring the displacement of Cy5-labeled BIM BH3 peptide (H2N (C/Cy5Mal) WIAQELRRIGDEFN-OH) in the HTRF assay format.

Induced myeloid leukemia cell differentiation protein Mcl-1, sequence (Q07820 whole entry): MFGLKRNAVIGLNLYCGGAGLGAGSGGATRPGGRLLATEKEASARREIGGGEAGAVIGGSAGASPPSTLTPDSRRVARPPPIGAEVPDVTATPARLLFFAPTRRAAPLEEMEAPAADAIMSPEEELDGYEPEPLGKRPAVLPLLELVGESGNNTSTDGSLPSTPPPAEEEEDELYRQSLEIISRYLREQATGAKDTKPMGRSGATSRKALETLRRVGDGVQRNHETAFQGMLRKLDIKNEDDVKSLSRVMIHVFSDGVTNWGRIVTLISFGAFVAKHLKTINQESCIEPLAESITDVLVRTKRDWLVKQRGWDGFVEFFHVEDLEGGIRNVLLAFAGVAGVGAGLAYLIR

Cc1nn(C)c(C)c1-c1c(Cl)ccc2c3c(C(=O)O)n(c12)CCCSCc1cc(n(C)n1)CSc1cc(c2ccccc2c1)OCCC3 [US20240190893, Compound 19]
Ki: 1.44 nM and 0.249 nM
